Tested on: breast cancer (BT-474)
Experiment: Anticancer activity assay (WST-8 cell growth), BT-474
Format: cell-based
Conditions: Homo sapiens, BT-474, 96 h, read-out: IC50 (nM) BT-474
Protocol: The compounds of the present invention were assayed for inhibitory activity against 7 cancer cell lines as breast cancer (BT-474), human epithelial cancer (A-431), non-small cell lung cancer (NCI-H460), colon cancer (HT-29), colon cancer (SW-620), breast cancer (MDA-MB-231) and breast cancer (MCF-7).
Briefly, a suspension of each cancer cell line was serially diluted, and plated at a density of 2˜3×10^3 cells/well into 96-well microplates, followed by incubation at 37° C. for 4 day in a 5% CO2 atmosphere. Cell growth in a monolayer was measured using WST-8 reagemt (Dojindo, Japan).
IC50 values of the compounds against the cancer cell lines were calculated as compound concentrations at which the cells were grown by 50% OD of the control.

| SMILES | IC50 [nM] |
| --- | --- |
| CC[C@H](C)[C@@H]([C@@H](CC(=O)N1C[C@H](OC)C[C@@H]1[C@H](OC)[C@@H](C)C(=O)N[C@H](C)C(=O)c1c(F)cccc1F)OC)N(C)C(=O)[C@@H](NC(=O)[C@@H](NC)C(C)C)C(C)C [Compound I-18, (S)—N-((3R,4S,5S)-1-((2R,4R)-2-((1R,2R)-3-(((R)-1-(2,6-difluorophenyl)-1-oxopropan-2-yl)amino)-1-methoxy-2-methyl-3-oxopropyl)-4-methoxypyrrolidin-1-yl)-3-methoxy-5-methyl-1-oxoheptan-4-yl)-N,3-dimethyl-2-((S)-3-methyl-2-(methylamino)butaneamido)butanamide] | 0.88 |
| CC[C@H](C)[C@@H]([C@@H](CC(=O)N1C[C@@H](O)C[C@H]1[C@H](OC)[C@@H](C)C(=O)N[C@@H](C)C(=O)c1ccc(F)cc1)OC)N(C)C(=O)[C@@H](NC(=O)[C@H](C(C)C)N(C)C)C(C)C [Compound I-41, (2S)-2-((S)-2-(dimethylamino)-3-methylbutaneamido)-N-((3R,4S)-1-((2S,4S)-2-((1R,2R)-3-(((S)-1-(4-fluorophenyl)-1-oxopropan-2-yl)amino)-1-methoxy-2-methyl-3-oxopropyl)-4-hydroxypyrrolidin-1-yl)-3-methoxy-5-methyl-1-oxoheptan-4-yl)-N,3-dimethylbutanamide] | 1.83 |
| CC[C@H](C)[C@@H]([C@@H](CC(=O)N1C[C@@H](O)C[C@H]1[C@H](OC)[C@@H](C)C(=O)N[C@@H](C)C(=O)c1ccc(F)cc1)OC)N(C)C(=O)[C@@H](NC(=O)[C@@H](NC)C(C)C)C(C)C [Compound I-43, (2S)—N-((3R,4S)-1-((2S,4S)-2-((1R,2R)-3-(((S)-1-(4-fluorophenyl)-1-oxopropan-2-yl)amino)-1-methoxy-2-methyl-3-oxopropyl)-4-hydroxypyrrolidin-1-yl)-3-methoxy-5-methyl-1-oxoheptan-4-yl)-N,3-dimethyl-2-((S)-3-methyl-2-(methylamino)butaneamido)butanamide] | 6.43 |
| CC[C@H](C)[C@@H]([C@@H](CC(=O)N1C[C@H](OC)C[C@H]1[C@H](OC)[C@@H](C)C(=O)NC/C(=N/O)c1ccc(OC)cc1F)OC)N(C)C(=O)[C@@H](NC(=O)[C@@H](NC)C(C)C)C(C)C [Compound I-25] | 0.41 |
| CC[C@H](C)[C@@H]([C@@H](CC(=O)N1C[C@H](OC)C[C@H]1[C@H](OC)[C@@H](C)C(=O)NCC(=O)c1ccc(C)cc1)OC)N(C)C(=O)[C@@H](NC(=O)[C@@H](NC)C(C)C)C(C)C [Compound I-29, (S)—N-((3R,4S,5S)-3-methoxy-1-((2S,4R)-4-methoxy-2-((1R,2R)-1-methoxy-2-methyl-3-oxo-3-((2-oxo-2-(p-tolyl)ethyl)amino)propyl)pyrrolidin-1-yl)-5-methyl-1-oxoheptan-4-yl)-N,3-dimethyl-2-((S)-3-methyl-2-(methylamino)butaneamido)butanamide] | 0.61 |
| CC[C@H](C)[C@@H]([C@@H](CC(=O)N1C[C@H](OC)C[C@H]1[C@H](OC)[C@@H](C)C(=O)N[C@@H](C)C(N)c1ccccc1)OC)N(C)C(=O)[C@@H](NC(=O)[C@H](C(C)C)N(C)C)C(C)C (mixture of isomers) [Compound I-37, (2S)—N-((3R,4S)-1-((2S,4R)-2-((1R,2R)-3-(((2S)-1-amino-1-phenylpropan-2-yl)amino)-1-methoxy-2-methyl-3-oxopropyl)-4-methoxypyrrolidin-1-yl)-3-methoxy-5-methyl-1-oxoheptan-4-yl)-2-((S)-2-(dimethylamino)-3-methylbutaneamido)-N,3-dimethylbutanamide] | 2.82 |
| CC[C@H](C)[C@@H]([C@@H](CC(=O)N1C[C@@H](O)C[C@H]1[C@H](OC)[C@@H](C)C(=O)NCCc1c(F)cccc1F)OC)N(C)C(=O)[C@@H](NC(=O)[C@H](C(C)C)N(C)C)C(C)C [Compound I-40] | 0.23 |
| CC[C@H](C)[C@@H]([C@@H](CC(=O)N1C[C@H](OC)C[C@@H]1[C@H](OC)[C@@H](C)C(=O)N[C@@H](C)C(=O)c1cc(F)cc(F)c1)OC)N(C)C(=O)[C@@H](NC(=O)[C@@H](NC)C(C)C)C(C)C [Compound I-16, (S)—N-((3R,4S,5S)-1-((2R,4R)-2-((1R,2R)-3-(((S)-1-(3,5-difluorophenyl)-1-oxopropan-2-yl)amino)-1-methoxy-2-methyl-3-oxopropyl)-4-methoxypyrrolidin-1-yl)-3-methoxy-5-methyl-1-oxoheptan-4-yl)-N,3-dimethyl-2-((S)-3-methyl-2-(methylamino)butaneamido)butanamide] | 0.65 |
| CC[C@H](C)[C@@H]([C@@H](CC(=O)N1C[C@@H](OC)C[C@@H]1[C@H](OC)[C@@H](C)C(=O)NCCc1ccccc1)OC)N(C)C(=O)[C@@H](NC(=O)[C@H](C(C)C)N(C)C)C(C)C [Compound I-10, (S)-2-((S)-2-(dimethylamino)-3-methylbutaneamido)-N-((3R,4S,5S)-3-methoxy-1-((2R,4S)-4-methoxy-2-((1R,2R)-1-methoxy-2-methyl-3-oxo-3-(phenethylamino)propyl)pyrrolidin-1-yl)-5-methyl-1-oxoheptan-4-yl)-N,3-dimethylbutanamide] | 0.24 |
| CC[C@H](C)[C@@H]([C@@H](CC(=O)N1C[C@H](OC)C[C@H]1[C@H](OC)[C@@H](C)C(=O)N[C@H](C)C(=O)c1ccccc1)OC)N(C)C(=O)[C@@H](NC(=O)[C@@H](NC)C(C)C)C(C)C (stereo in doubt) [Compound I-6, (2 S)—N-((3R,4S)-3-methoxy-1-((2R,4R)-4-methoxy-2-((1R,2R)-1-methoxy-2-methyl-3-oxo-3-(((R)-1-oxo-1-phenylpropan-2-yl)amino)propyl)pyrrolidin-1-yl)-5-methyl-1-oxoheptan-4-yl)-N,3-dimethyl-2-((S)-3-methyl-2-(methylamino)butaneamido)butanamide] | 0.32 |
| CC[C@H](C)[C@@H]([C@@H](CC(=O)N1C[C@H](OC)C[C@@H]1[C@H](OC)[C@@H](C)C(=O)N[C@H](C)C(=NO)c1cccc(OC)c1)OC)N(C)C(=O)[C@@H](NC(=O)[C@H](C(C)C)N(C)C)C(C)C [Compound I-20, (S)-2-((S)-2-(dimethylamino)-3-methylbutaneamido)-N-((3R,4S,5S)-1-((2R,4R)-2-((1R,2R)-3-(((R)-1-(hydroxyimino)-1-(3-methoxyphenyl)propan-2-yl)amino)-1-methoxy-2-methyl-3-oxopropyl)-4-methoxypyrrolidin-1-yl)-3-methoxy-5-methyl-1-oxoheptan-4-yl)-N,3-dimethylbutanamide] | 0.47 |
| CC[C@H](C)[C@@H]([C@@H](CC(=O)N1C[C@H](OC)C[C@H]1[C@H](OC)[C@@H](C)C(=O)N[C@@H](C)C(=O)c1ccccc1)OC)N(C)C(=O)[C@@H](NC(=O)[C@@H](NC)C(C)C)C(C)C [Compound I-7, (2 S)—N-((3R,4S)-3-methoxy-1-((2S,4R)-4-methoxy-2-((1R,2R)-1-methoxy-2-methyl-3-oxo-3-(((S)-1-oxo-1-phenylpropan-2-yl)amino)propyl)pyrrolidin-1-yl)-5-methyl-1-oxoheptan-4-yl)-N,3-dimethyl-2-((S)-3-methyl-2-(methylamino)butaneamido)butanamide] | 0.62 |
| CC[C@H](C)[C@@H]([C@@H](CC(=O)N1C[C@@H](NC)C[C@H]1[C@H](OC)[C@@H](C)C(=O)NCCc1c(F)cccc1F)OC)N(C)C(=O)[C@@H](NC(=O)[C@H](C(C)C)N(C)C)C(C)C [Compound I-45, (2S)—N-((3R,4S)-1-((2S,4S)-2-((1R,2R)-3-((2,6-difluorophenethyl)amino)-1-methoxy-2-methyl-3-oxopropyl)-4-(methylamino)pyrrolidin-1-yl)-3-methoxy-5-methyl-1-oxoheptan-4-yl)-2-((S)-2-(dimethylamino)-3-methylbutaneamido)-N,3-dimethylbutanamide] | 0.34 |
| CC[C@H](C)[C@@H]([C@@H](CC(=O)N1C[C@H](OC)C[C@@H]1[C@H](OC)[C@@H](C)C(=O)N[C@H](C)/C(=N\O)c1cccc(OC)c1)OC)N(C)C(=O)[C@@H](NC(=O)[C@@H](NC)C(C)C)C(C)C [Compound I-19, (S)—N-((3R,4S,5 S)-1-((2R,4R)-2-((1R,2R)-3-(((R,Z)-1-(hydroxyimino)-1-(3-methoxyphenyl)propan-2-yl)amino)-1-methoxy-2-methyl-3-oxopropyl)-4-methoxypyrrolidin-1-yl)-3-methoxy-5-methyl-1-oxoheptan-4-yl)-N,3-dimethyl-2-((S)-3-methyl-2-(methylamino)butaneamido)butanamide] | 0.09 |
| CC[C@H](C)[C@@H]([C@@H](CC(=O)N1C[C@H](OC)C[C@@H]1[C@H](OC)[C@@H](C)C(=O)N[C@H](C)C(=NO)c1ccc(F)cc1)OC)N(C)C(=O)[C@@H](NC(=O)[C@H](C(C)C)N(C)C)C(C)C [Compound I-21, (S)-2-((S)-2-(dimethylamino)-3-methylbutaneamido)-N-((3R,4S,5S)-1-((2R,4R)-2-((1R,2R)-3-(((R)-1-(4-fluorophenyl)-1-(hydroxyimino)propan-2-yl)amino)-1-methoxy-2-methyl-3-oxopropyl)-4-methoxypyrrolidin-1-yl)-3-methoxy-5-methyl-1-oxoheptan-4-yl)-N,3-dimethylbutanamide] | 0.59 |
| CC[C@H](C)[C@@H]([C@@H](CC(=O)N1C[C@H](OC)C[C@@H]1[C@H](OC)[C@@H](C)C(=O)N[C@H](C)C(=O)c1ccc(F)cc1)OC)N(C)C(=O)[C@@H](NC(=O)[C@@H](NC)C(C)C)C(C)C [Compound I-11, (S)—N-((3R,4S,5 S)-1-((2R,4R)-2-((1R,2R)-3-(((R)-1-(4-fluorophenyl)-1-oxopropan-2-yl)amino)-1-methoxy-2-methyl-3-oxopropyl)-4-methoxypyrrolidin-1-yl)-3-methoxy-5-methyl-1-oxoheptan-4-yl)-N,3-dimethyl-2-((S)-3-methyl-2-(methylamino)butaneamido)butanamide] | 0.78 |
